Measurements reported in paper PMC4157654, “Orthogonal functionalisation of α-helix mimetics” (Organic & Biomolecular Chemistry, 2014).

How the values were obtained:
p53/hDM2 interaction = molecular target: T1, p53/hDM2 interaction (Homo sapiens, UniProt Q00987); test: Fluorescence anisotropy competition assay, p53/hDM2; type: binding; conditions: hDM2 154 nM, FITC-p53 54.5 nM, phosphate buffer pH 7.5, 200 mM NaCl, 0.02 mg/ml BSA
T1 construct: hDM2 17-126 was diluted into buffer; made in house
Description: The ability of the trimers to inhibit the p53/hDM2 interaction was then investigated using a fluorescence anisotropy competition assay (Fig. 3a). Briefly, a fluorescein-labelled p53 peptide is initially bound to hDM2 and displaced by increasing concentrations of inhibitor leading to a measurable decrease in anisotropy from which IC50 values can be determined, Table 1.
(§1) Fig. 3 Fluorescence anisotropy binding assays in phosphate buffer pH 7.5, 200 mM NaCl, 0.02 mg ml^–1 BSA. (a) p53/hDM2 competition assay hDM2 is fixed as 154 nM and FITC-p53 is at a concentration of 54.5 nM. (b) Direct binding assay of trimer 5 binding to hDM2 or Mcl-1. Compound 5 is fixed at 50 nM.
Figure S6 – Fluorescence anisotropy competition assay testing the inhibition of the trimers against the p53/hDM2 interaction; unfunctionalised trimer 1 and acid, ethylene glycol and coumarin-functionalised trimers 2, 3 and 4. Performed in phosphate buffer pH 7.5, 200 mM NaCl, 0.02 mg/ml BSA. h DM2 is fixed as 154 nM and FITC-p53 is at a concentration of 54.5 nM. […]

Mcl-1/NOXA-B interaction = molecular target: T2, Mcl-1/NOXA-B interaction (Homo sapiens, UniProt Q07820); test: Fluorescence anisotropy competition assay, Mcl-1/NOXA-B; type: binding; conditions: Mcl-1 150 nM, FITC-NOXA-B 50 nM, phosphate buffer pH 7.5
T2 construct: The pet28a His-SUMO Mcl-1 (172-327) construct was over-expressed; His (N, cleaved yes); SUMO (N, cleaved yes); made in house; host or cells: E. coli Rosetta 2
Description: Determination of the binding of FITC-NOXA-B to Mcl-1
The procedure followed was adapted from our previous paper on O-alkylated aromatic oligoamides.1 […]
Briefly: Mcl-1 was serially diluted (446 pM – 5 μM) into a solution of FITC-NOXA-B (25 nM) (40 […]
mM Sodium phosphate buffer pH 7.54, 200 mM NaCl, 0.02 mg/ml of bovine serum albumin) – the […]
total volume of each well was 100 μL, the plates were allowed to incubate at room temperature for 45 […]
minutes. Each experiment was run in triplicate and the fluorescence anisotropy measured using a […]
Perkin Elmer EnVisionTM 2103 MultiLabel plate reader, with excitation at 480 nm and emission at […]
535 nm ([…] bandwidth) and the intensity (Eq. 1) was calculated for each point. This was used to […]
calculate anisotropy (Eq. 2) and plotted to a sigmoidal fit in Origin 7 to determine the minimum and […]
maximum anisotropies (rmin and rmax). Using equation 3, the data for the anisotropy was converted to […]
fraction bound and multiplied by the FITC-NOXA-B concentration then fitted in origin 7 (Eq. 4) to […]
From a plot of intensity (Eq. 1) against […]
concentration of protein λ was calculated to be 1. […]
{(k + x + [FL] - {(k + x + [FL]2 - 4x[FL]} r = anisotropy, I = total intensity, P = perpendicular intensity, S = parallel intensity, Lb = fraction ligand bound, λ = Ibound/Iunbound = 1, [FL] = concentration of fluorescent ligand, k1 = Kd , y = Lb* FITC- […]
NOXA-B and x = [added titrant], G is an instrument factor set to 1.
Figure S4 - Fluorescence anisotropy titration assays for the addition of FITC-NOXA-B to a constant […]
concentration of Mcl-1. Performed in phosphate buffer pH 7.5, 200 mM NaCl, 0.02 mg/ml BSA.
In order to set up displacement assay conditions Mcl-1 and FITC-labelled NOXA-B concentrations […]
were fixed and the tracer peptide was displaced with unlabelled NOXA-B.
Figure S5 – Fluorescence anisotropy competition assay testing the inhibition of unlabelled NOXA-B […]
against the Mcl-1/NOXA-B interaction. Performed in phosphate buffer pH 7.5, 200 mM NaCl, 0.02 […]
mg/ml BSA. Mcl-1 is fixed as 150 nM and FITC-NOXA-B is at a concentration of 50 nM. […]
Figure S7 – Fluorescence anisotropy competition assay testing the inhibition of the trimers against the Mcl-1/NOXA-B interaction; unfunctionalised trimer 1 and acid, ethylene glycol and coumarin- […]
BSA. Mcl-1 is fixed as 150 nM and FITC-NOXA-B is at a concentration of 50 nM.

Bcl-xL/BAK interaction = molecular target: T3, Bcl-xL/BAK interaction (Homo sapiens, UniProt Q07817); test: Fluorescence anisotropy competition assay, Bcl-xL/BAK; type: binding; conditions: Bcl-xL 131 nM, BODIPY-BAK 43 nM, phosphate buffer pH 7.5
T3 construct: made in house
Description: Figure S8 – Fluorescence anisotropy competition assay testing the inhibition of the trimers against the Bcl-x L/BAK interaction; unfunctionalised trimer 1 and acid, ethylene glycol and coumarin-functionalised trimers 2, 3 and 4. Performed in phosphate buffer pH 7.5, 200 mM NaCl, 0.02 mg/ml
BSA. Bcl-x L is fixed as 131 nM and BODIPY-BAK is at a concentration of 43 nM.
The observed increase in anisotropy is likely to be the result of aggregation of the trimer to the BAK […]
tracer and Bcl-x L complex. […]
In all experiments the G factor, or ratio between the efficiency of the S(ame) and P(erpendicular) channels was set to 1. […]

hDM2 [1] = molecular target: T4, hDM2 (Homo sapiens, UniProt Q00987); test: Microscale thermophoresis direct binding to hDM2; conditions: trimer fixed at 50 nM, phosphate buffer pH 7.5
T4 construct: hDM2 17-126 was diluted into buffer; made in house
Description: (§2) The fluorescently tagged trimers 4 and 5 were designed for use in direct binding experiments. We observed that upon ‘click’ reaction, the fluorescence of the coumarin group in trimer 4 was quenched (Fig. S14 ^†). This trimer was therefore tested in the fluorescence anisotropy competition assays as described above (Fig. S7 and S8 ^†). […] Direct binding experiments were performed using both fluorescence anisotropy (Fig. 3b) and microscale thermophoresis[52] (Fig. S12 ^†). […] The same fluorescence anisotropy experiment was then carried out for Mcl-1 and Bcl-xL. […] The absence of selectivity between hDM2 and Mcl-1 in this instance may arise as a consequence of non-specific interactions imparted by the fluorescein group – we note that K d is lower for 5 than the IC50's observed for both 2 and 3 which would support this hypothesis.
Thermophoresis Direct Binding to h DM2
Figure S12 – Direct binding of Compound 5 to hDM2 measured using thermophoresis at a fixed […]
concentration of 5 of 50 nM. […] Performed in phosphate buffer pH 7.5, 200 mM NaCl, […]
The larger errors at lower protein concentration are possibly the result of non-specific binding of the fluorescent trimer to the thermophoresis capillaries.
Fluorescence and Absorbance Characterisation of Trimers 4 and 5 […]
(1 picture or pasted object on this page, not shown here)

Bcl-xL = molecular target: T5, Bcl-xL (Homo sapiens, UniProt Q07817); test: Fluorescence anisotropy direct binding assay, Bcl-xL; conditions: trimer fixed at 50 nM
T5 construct: made in house
Description: as §2
Figure S10 - Change of intensity during addition of Mcl-1 used to calculate λ.
Anisotropy Direct Binding to Bcl-x L
Figure S11 – Anisotropy direct binding of Compound 5 to Bcl-x L at a fixed concentration of 5 of 50
nM. Performed in phosphate buffer pH 7.5, 200 mM NaCl, 0.02 mg/ml BSA. […]

hDM2 [2] = molecular target: T4, hDM2; test: Fluorescence anisotropy direct binding assay, hDM2; conditions: trimer fixed at 50 nM, read-out: Kd obtained through direct titration, hDM2
Description: as §1
The fluorescently tagged trimers 4 and 5 were designed for use in direct binding experiments. We observed that upon ‘click’ reaction, the fluorescence of the coumarin group in trimer 4 was quenched (Fig. S14 ^†). This trimer was therefore tested in the fluorescence anisotropy competition assays as described above (Fig. S7 and S8 ^†). […] Direct binding experiments were performed using both fluorescence anisotropy (Fig. 3b) and microscale thermophoresis[52] (Fig. S12 ^†). […] The same fluorescence anisotropy experiment was then carried out for Mcl-1 and Bcl-xL. […]
Figure S8 – Fluorescence anisotropy competition assay testing the inhibition of the trimers against the Bcl-x L/BAK interaction; unfunctionalised trimer 1 and acid, ethylene glycol and coumarin-functionalised trimers 2, 3 and 4. […]
Direct Binding Assay Development hDM2 17-126 was diluted into buffer across the 24 wells from 400 μM to 36 nM. […] Ligand bound was calculated from Eq. 3 using λ =
2.06. K d was calculated from Eq. 4. […]

Mcl-1 = molecular target: T6, Mcl-1 (Homo sapiens, UniProt Q07820); test: Fluorescence anisotropy direct binding assay, Mcl-1; conditions: trimer fixed at 50 nM, read-out: Kd obtained through direct titration, Mcl-1
T6 construct: The pet28a His-SUMO Mcl-1 (172-327) construct was over-expressed; His (N, cleaved yes); SUMO (N, cleaved yes); made in house; host or cells: E. coli Rosetta 2
Description: as §1, §2
Figure S9 - Change of intensity during addition of hDM2 used to calculate λ.
Mcl-1172-327 was diluted into buffer across the 24 wells from 200 μM to 18 nM. […] Ligand bound was calculated from Eq. 3 using λ =
2.31. K d was calculated from Eq. 4. […]

Row | Compound | IC50 (p53/hDM2 interaction) [µM] | IC50 (Mcl-1/NOXA-B interaction) [µM] | IC50 Bcl-xL/BAK (Bcl-xL/BAK interaction) | Kd (hDM2 [1]) [µM] | Direct binding to Bcl-xL (Bcl-xL) | Kd (hDM2 [2]) [µM] | Kd (Mcl-1) [µM]
1 | CC(C)CN(C(=O)c1ccc(N(Cc2cccc3ccccc23)C(=O)c2ccc(NCc3ccccc3)cc2)c(OCc2cn(CCOCCOCCOCCO)nn2)c1)c1ccc(C(=O)NCC(=O)O)cc1 [Trimer 3] | 42 ± 6 | > 70 | No inhibition | – | – | – | –
2 | CC(C)CN(C(=O)c1ccc(N(Cc2cccc3ccccc23)C(=O)c2ccc(NCc3ccccc3)cc2)c(OCc2cn(CCCNC(=O)c3cc4ccccc4oc3=O)nn2)c1)c1ccc(C(=O)NCC(=O)O)cc1 [Trimer 4] | 20.3 ± 0.3 | > 70 | No inhibition | – | – | – | –
3 | CC(C)CN(C(=O)c1ccc(N(Cc2cccc3ccccc23)C(=O)c2ccc(NCc3ccccc3)cc2)c(OCc2cn(CCCNC(=S)Nc3ccc(-c4c5ccc(=O)cc-5oc5cc(O)ccc45)c(C(=O)O)c3)nn2)c1)c1ccc(C(=O)NCC(=O)O)cc1 [Trimer 5] | – | – | – | 11 ± 2 | no binding was observed | 20 ± 6 | 13 ± 4

Other lines, results leading:

Row | IC50 (p53/hDM2 interaction) [µM] | IC50 (Mcl-1/NOXA-B interaction) [µM] | IC50 Bcl-xL/BAK (Bcl-xL/BAK interaction) | Kd (hDM2 [1]) [µM] | Direct binding to Bcl-xL (Bcl-xL) | Kd (hDM2 [2]) [µM] | Kd (Mcl-1) [µM] | Compound
4 | 12.3 ± 0.4 | > 70 | No inhibition | – | – | – | – | CC(C)CN(C(=O)c1ccc(N(Cc2cccc3ccccc23)C(=O)c2ccc(NCc3ccccc3)cc2)cc1)c1ccc(C(=O)NCC(=O)O)cc1 [Trimer 1]
5 | 40 ± 5 | > 70 | No inhibition | – | – | – | – | CC(C)CN(C(=O)c1ccc(N(Cc2cccc3ccccc23)C(=O)c2ccc(NCc3ccccc3)cc2)c(OCc2cn(CC(=O)O)nn2)c1)c1ccc(C(=O)NCC(=O)O)cc1 [Trimer 2]
